Patent publication US9895302B2, “Finasteride polymeric nanoparticle, aqueous suspension containing the same, composition for the treatment of alopecia, process of preparation of said composition, and its use” (Biolab Sanus Farmaceutica Ltda., priority 2012, dated 2018)
≈ marks a conversion by molar mass, not a printed value.

How the values were obtained:
[1] = Solubility of finasteride in Unistab S-69 (dosing by HPLC); type: physicochemical; conditions: Unistab S-69 (commercial mixture of farnesol and linalool), oil or lipid
Protocol: The second embodiment of the invention is to increase the encapsulation of finasteride by the addition of a new oil in the formulation's lipid core composition in which the solubility is greater than in caprylic and capric triglycerides. To this end, Unistab® S-69, a commercial mixture, was preferentially employed and consists of farnesol and linalool, in which the solubility of finasteride is about 90 mg/mL (dosing done by HPLC). Farnesol is a sesquiterpene alcohol and linalool is a terpenic alcohol, both found in various essential oils and insoluble in water but miscible with oils and other organic solvents such as acetone and ethanol. For being volatile, Unistab® S-69 was mixed with triglycerides in a ratio of 2.3: 1 (v/v) (Unistab® S-69: triglycerides). However, this proportion, considering the saturation of finasteride in Unistab® S-69, could be employed in the preparation of a formulation with a drug concentration of 2.0 mg/ml, due to the volatility of Unistab® S-69 and to the consequent loss of oil due to the draw caused by steam during the process of solvent evaporation under reduced pressure, a formulation was prepared with a finasteride concentration of 0.5 mg/ml, in order to ensure the nanometric features of the system. This formulation comprising a new lipid core represents the second embodiment of the invention.

[2] = tested on: men aged 18 to 41 years; conditions: 1 mg daily, at the end of five years; cited from earlier work

solubility [1]: ~90 mg/mL (≈ 242 mM)
Structure (SMILES): CC(C)(C)NC(=O)[C@H]1CC[C@H]2[C@@H]3CC[C@H]4NC(=O)C=C[C@]4(C)[C@H]3CC[C@]12C [finasteride]
Patients who developed baldness [2]: 10%
